Experiment [1] concerns the target T1, Aurora-A (Homo sapiens, UniProt O14965).
T1 sequence (O14965 1-403): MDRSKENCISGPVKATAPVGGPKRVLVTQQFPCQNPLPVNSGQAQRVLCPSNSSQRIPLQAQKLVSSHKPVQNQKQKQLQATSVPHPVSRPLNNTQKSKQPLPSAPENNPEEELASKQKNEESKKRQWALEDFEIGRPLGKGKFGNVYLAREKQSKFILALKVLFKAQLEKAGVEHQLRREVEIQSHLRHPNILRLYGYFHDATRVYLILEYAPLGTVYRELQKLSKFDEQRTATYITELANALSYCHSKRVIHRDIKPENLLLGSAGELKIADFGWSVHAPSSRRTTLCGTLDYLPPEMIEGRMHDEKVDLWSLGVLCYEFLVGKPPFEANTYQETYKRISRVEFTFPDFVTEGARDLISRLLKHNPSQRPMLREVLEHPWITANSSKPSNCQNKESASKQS
Put plainly: Flashplate Aurora A enzyme inhibition assay. In kind it is biochemical. To be noted: Flashplate assay; IC50 range; read-out: Aurora-A inhibition. An outline of the steps: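 This is a radiometric Flashplate format: plates were precoated with DTT, and compound (in 2% DMSO) was mixed with kinase buffer (pH 7.5 Tris, MgCl2, NaCl) containing 1 mM MBP, 20 μM ATP and ^33P-ATP. The reaction was started with 250 ng Aurora-A per well and incubated 2 h at RT. It was then stopped by 10 mM sodium pyrophosphate washing, and plates were scintillation-counted.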

In experiment [2] the test system is HCT116 cells. Description: Cell viability assay (MTT) in HCT116 cell line. It counts as cell-based. To be noted: Homo sapiens, HCT-116, 72 hrs, IC50 range, read-out: HCT116 cell growth inhibition. The method in brief: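 MTT read-out (4 hrs, 37 °C, DMSO extraction) following 72 hrs of treatment with 0-50 μM Aurora inhibitor. HCT116 cells were plated a day earlier and tested in triplicate; IC50 derived from the curve.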

Molecules are shown by their SMILES.

In the case of `CN1CCN(Cc2cccc(-c3nc4c(N5CCN(Cc6cccnc6)CC5)c(Br)cnc4[nH]3)c2)CC1` [Example 58, 6-Bromo-2-(3-((4-methylpiperazin-1-yl)methyl)phenyl)-7-(4-(pyridin-3-ylmethyl)piperazin-1-yl)-3H-imidazo[4,5-b]pyridine], the IC50 is below 0.5 µM in experiment [1] and 0.5 to 2 µM in experiment [2].

`CC(C)(C)OC(=O)NCc1ccc(-c2nc3c(N4CCN(Cc5cccnc5)CC4)c(Br)cnc3[nH]2)cc1` [Example 59, tert-Butyl 4-(6-bromo-7-(4-(pyridin-3-ylmethyl)piperazin-1-yl)-3H-imidazo[4,5-b]pyridin-2-yl)benzylcarbamate]: the results for the IC50 in experiment [1] and in experiment [2] were below 0.5 µM and 2 to 50 µM, respectively.

In the case of `NCc1ccc(-c2nc3c(N4CCN(Cc5cccnc5)CC4)c(Br)cnc3[nH]2)cc1` [Example 60, (4-(6-Bromo-7-(4-(pyridin-3-ylmethyl)piperazin-1-yl)-3H-imidazo[4,5-b]pyridin-2-yl)phenyl)methanamine], the IC50 is below 0.5 µM in experiment [1] and 0.5 to 2 µM in experiment [2].

Consider `CN(C)Cc1ccc(-c2nc3c(N4CCN(Cc5cccnc5)CC4)c(Br)cnc3[nH]2)cc1` [Example 61, 1-(4-(6-Bromo-7-(4-(pyridin-3-ylmethyl)piperazin-1-yl)-3H-imidazo[4,5-b]pyridin-2-yl)phenyl)-N,N-dimethylmethanamine], for which the IC50 is below 0.5 µM in experiment [1] and 0.5 to 2 µM in experiment [2].

As to `CN(C)c1ccc(-c2nc3c(N4CCN(CC(=O)Nc5nccs5)CC4)c(C#N)cnc3[nH]2)cc1` [Example 62, 2-(4-(6-Cyano-2-(4-(dimethylamino)phenyl)-3H-imidazo[4,5-b]pyridin-7-yl)piperazin-1-yl)-N-(thiazol-2-yl)acetamide], the IC50 in experiment [1] was below 0.5 µM; in experiment [2], 0.5 to 2 µM.

Regarding `Cc1cc(NC(=O)CN2CCN(c3c(Cl)cnc4[nH]c(-c5ccc(N(C)C)cc5)nc34)CC2)on1` [Example 63, 2-(4-(6-Chloro-2-(4-(dimethylamino)phenyl)-3H-imidazo[4,5-b]pyridin-7-yl)piperazin-1-yl)-N-(3-methylisoxazol-5-yl)acetamide], the figures for the IC50 in experiment [1] and in experiment [2] were below 0.5 µM and 0.5 to 2 µM, respectively.

In the case of `COc1ccc(-c2nc3c(N4CCN(CC(=O)Nc5cc(C)no5)CC4)c(Cl)cnc3[nH]2)cc1` [Example 64, 2-(4-(6-Chloro-2-(4-methoxyphenyl)-3H-imidazo[4,5-b]pyridin-7-yl)piperazin-1-yl)-N-(3-methylisoxazol-5-yl)acetamide], the IC50 in experiment [1] is below 0.5 µM; in experiment [2], 0.5 to 2 µM.

Turning to `Brc1cnc2[nH]c(-c3cccc(CN4CCOCC4)c3)nc2c1N1CCN(Cc2cccnc2)CC1` [Example 66, 6-Bromo-2-(3-morpholin-4-ylmethyl-phenyl)-7-(4-pyridin-3-ylmethyl-piperazin-1-yl)-3H-imidazo[4,5-b]pyridine], the IC50 in experiment [1] and in experiment [2] was below 0.5 µM throughout.

Consider `COc1ccc(-c2nc3c(N4CCN(Cc5ccncc5)CC4)c(Br)cnc3[nH]2)cc1` [Example 67, 6-Bromo-2-(4-methoxy-phenyl)-7-(4-pyridin-4-ylmethyl-piperazin-1-yl)-3H-imidazo[4,5-b]pyridine], for which the IC50 in experiment [1] and in experiment [2] was below 0.5 µM in each case.

Regarding `Clc1ccc(CN2CCN(c3c(Br)cnc4[nH]c(-c5ccc(CN6CCOCC6)cc5)nc34)CC2)cc1` [Example 69, 6-Bromo-7-[4-(4-chloro-benzyl)-piperazin-1-yl]-2-(4-morpholin-4-ylmethyl-phenyl)-3H-imidazo[4,5-b]pyridine], the figures for the IC50 in experiment [1] and in experiment [2] were below 0.5 µM and 0.5 to 2 µM, respectively.

As for `CC(c1ccccc1)N1CCN(c2c(Br)cnc3[nH]c(-c4ccc(CN5CCOCC5)cc4)nc23)CC1` (centres unmarked) [Example 70, 6-Bromo-2-(4-morpholin-4-ylmethyl-phenyl)-7-[4-(1-phenyl-ethyl)-piperazin-1-yl]-3H-imidazo[4,5-b]pyridine], the IC50 is below 0.5 µM in experiment [1] and 0.5 to 2 µM in experiment [2].

For the compound `CC(c1ccccc1)N1CCN(c2c(Br)cnc3[nH]c(-c4ccc(N5CCN(C)CC5)cc4)nc23)CC1` (centres unmarked) [Example 71, 6-Bromo-2-[4-(4-methyl-piperazin-1-yl)-phenyl]-7-[4-(1-phenyl-ethyl)-piperazin-1-yl]-3H-imidazo[4,5-b]pyridine], the IC50 in experiment [1] and in experiment [2] was below 0.5 µM each time.

In the case of `COc1ccc(-c2nc3c(N4CCN(CC5CC5)CC4)c(Br)cnc3[nH]2)cc1` [Example 73, 6-Bromo-7-(4-cyclopropylmethyl-piperazin-1-yl)-2-(4-methoxy-phenyl)-3H-imidazo[4,5-b]pyridine], the IC50 in experiment [1] and in experiment [2] was 0.5 to 2 µM in each case.

In the case of `COc1ccc(-c2nc3c(N4CCN(Cc5cc(C)on5)CC4)c(Br)cnc3[nH]2)cc1` [Example 74, 6-Bromo-2-(4-methoxy-phenyl)-7-[4-(5-methyl-isoxazol-3-ylmethyl)-piperazin-1-yl]-3H-imidazo[4,5-b]pyridine], the IC50 in experiment [1] and in experiment [2] was below 0.5 µM in each case.

Turning to `O=C(CN1CCN(c2c(Cl)cnc3[nH]c(-c4ccc(CN5CCOCC5)cc4)nc23)CC1)Nc1nccs1` [Example 76, 2-{4-[6-Chloro-2-(4-morpholin-4-ylmethyl-phenyl)-3H-imidazo[4,5-b]pyridin-7-yl]-piperazin-1-yl}-N-thiazol-2-yl-acetamide], the IC50 in experiment [1] and in experiment [2] was below 0.5 µM each time.

On to `Brc1cnc2[nH]c(-c3ccc(Cn4cccn4)cc3)nc2c1N1CCN(Cc2ccncc2)CC1` [Example 78, 2-(4-((1H-Pyrazol-1-yl)methyl)phenyl)-6-bromo-7-(4-(pyridin-4-ylmethyl)piperazin-1-yl)-3H-imidazo[4,5-b]pyridine], for which the IC50 in experiment [1] and in experiment [2] was below 0.5 µM each time.

Take `Clc1cnc2[nH]c(-c3ccc(CN4CCOCC4)cc3)nc2c1N1CCN(Cc2cccnc2)CC1` [Example 79, 6-Chloro-2-(4-morpholin-4-ylmethyl-phenyl)-7-(4-pyridin-3-ylmethyl-piperazin-1-yl)-3H-imidazo[4,5-b]pyridine]: the IC50 in experiment [1] and in experiment [2] was below 0.5 µM each time.

Consider `Cc1cc(CN2CCN(c3c(Cl)cnc4[nH]c(-c5ccc(CN6CCOCC6)cc5)nc34)CC2)no1` [Example 80, 6-Chloro-7-[4-(5-methyl-isoxazol-3-ylmethyl)-piperazin-1-yl]-2-(4-morpholin-4-ylmethyl-phenyl)-3H-imidazo[4,5-b]pyridine], for which the IC50 in experiment [1] was below 0.5 µM; in experiment [2] it was 0.5 to 2 µM.

Turning to `COc1cccc(-c2nc3c(N4CCN(Cc5cc(C)on5)CC4)c(Br)cnc3[nH]2)c1` [Example 81, 6-Bromo-2-(3-methoxy-phenyl)-7-[4-(5-methyl-isoxazol-3-ylmethyl)-piperazin-1-yl]-3H-imidazo[4,5-b]pyridine], the figures for the IC50 in experiment [1] and in experiment [2] were below 0.5 µM and 0.5 to 2 µM, respectively.

As for `Brc1cnc2[nH]c(-c3ccc(OCCN4CCOCC4)cc3)nc2c1N1CCN(Cc2ccncc2)CC1` [Example 82, 6-Bromo-2-[4-(2-morpholin-4-yl-ethoxy)-phenyl]-7-(4-pyridin-4-ylmethyl-piperazin-1-yl)-3H-imidazo[4,5-b]pyridine], the IC50 in experiment [1] and in experiment [2] was below 0.5 µM throughout.

Regarding `Clc1cnc2[nH]c(-c3ccc(Cn4cccn4)cc3)nc2c1N1CCN(Cc2ccncc2)CC1` [Example 83, 2-(4-((1H-Pyrazol-1-yl)methyl)phenyl)-6-chloro-7-(4-(pyridin-4-ylmethyl)piperazin-1-yl)-3H-imidazo[4,5-b]pyridine], the IC50 in experiment [1] and in experiment [2] was below 0.5 µM throughout.

For the compound `O=C(CN1CCN(c2c(Cl)cnc3[nH]c(-c4ccc(Cn5cccn5)cc4)nc23)CC1)Nc1nccs1` [Example 84, 2-(4-(2-(4-((1H-Pyrazol-1-yl)methyl)phenyl)-6-chloro-3H-imidazo[4,5-b]pyridin-7-yl)piperazin-1-yl)-N-(thiazol-2-yl)acetamide], the IC50 in experiment [1] and in experiment [2] was below 0.5 µM each time.

For the compound `Clc1ccc(CN2CCN(c3c(Br)cnc4[nH]c(-c5ccc(Cn6cccn6)cc5)nc34)CC2)cc1` [Example 85, 2-(4-((1H-Pyrazol-1-yl)methyl)phenyl)-6-bromo-7-(4-(4-chlorobenzyl)piperazin-1-yl)-3H-imidazo[4,5-b]pyridine], the IC50 in experiment [1] and in experiment [2] was below 0.5 µM in each case.

For `CN1CCN(c2ccc(-c3nc4c(N5CCN(Cc6ccc(Cl)cc6)CC5)c(Br)cnc4[nH]3)cc2)CC1` [Example 86, 6-Bromo-7-[4-(4-chloro-benzyl)-piperazin-1-yl]-2-[4-(4-methyl-piperazin-1-yl)-phenyl]-3H-imidazo[4,5-b]pyridine], the IC50 in experiment [1] and in experiment [2] was below 0.5 µM in each case.

Turning to `O=C(CN1CCN(c2c(Cl)cnc3[nH]c(-c4ccc5c(c4)OCCO5)nc23)CC1)Nc1nccs1` [Example 87, 2-{4-[6-Chloro-2-(2,3-dihydro-benzo[1,4]dioxin-6-yl)-3H-imidazo[4,5-b]pyridin-7-yl]-piperazin-1-yl}-N-thiazol-2-yl-acetamide], the IC50 was below 0.5 µM in experiment [1] and 0.5 to 2 µM in experiment [2].

Source of the values: patent US8088761B2, “Enzyme inhibitors” (Cancer Research Technology Limited, priority 2005, dated 2012).
